Experimental data as given in article PMC7817009, “Structural analysis of rice Os4BGlu18 monolignol β-glucosidase” (PLoS ONE, 2021).

Biological target: T1, Os4BGlu18 (Oryza sativa, UniProt Q7XSK0)
T1 construct: gene BGLU18; mature protein without predicted signal peptide (1-26); N-terminal thioredoxin-His6 tag cut with enterokinase, a few tag residues remain; residues 27-500 seen, last five (LHENQ) disordered
Assay: X-ray crystallography of soaked crystal, […] Å
Conditions: crystals soaked in 1 mM for 20 min, MES pH 6.0; glycone-binding active site (subsite -1)

T1 sequence (Q7XSK0 27-505): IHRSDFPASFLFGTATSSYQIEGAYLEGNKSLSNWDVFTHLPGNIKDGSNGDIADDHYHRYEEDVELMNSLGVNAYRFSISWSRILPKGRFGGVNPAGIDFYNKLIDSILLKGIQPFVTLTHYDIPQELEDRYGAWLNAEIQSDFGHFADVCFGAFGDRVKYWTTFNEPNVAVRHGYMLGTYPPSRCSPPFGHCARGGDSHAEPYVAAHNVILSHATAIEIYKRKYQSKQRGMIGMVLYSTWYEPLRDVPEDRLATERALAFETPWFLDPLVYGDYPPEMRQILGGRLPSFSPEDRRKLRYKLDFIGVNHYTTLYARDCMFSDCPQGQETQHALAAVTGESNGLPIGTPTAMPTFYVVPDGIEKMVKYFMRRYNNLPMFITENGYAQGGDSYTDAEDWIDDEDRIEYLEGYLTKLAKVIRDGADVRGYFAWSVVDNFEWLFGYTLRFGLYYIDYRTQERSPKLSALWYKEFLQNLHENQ

SMILES: O=C1O[C@H](CO)[C@@H](O)[C@H](O)[C@H]1O [DG, δ-gluconolactone]
- X-ray crystallography of soaked crystal, 2.1 Å: could be observed in the active site pocket
